Data from article PMC10387993, “New pyrimidine-N-β-D-glucosides: synthesis, biological evaluation, and molecular docking investigations” (Turkish Journal of Chemistry, 2023).
Converted amounts (≈) assume the structure as drawn. Where two headings read alike, the source gives them in different places.

What was measured:
Format in all cases: cell-based
A549 = experiment: cells; conditions: Homo sapiens; for LC50 (concentration causing 50% net cell loss): A549, read-out: LC50; for GI50 / IC50 / IC (total growth inhibition): A549, MTT; for IC50: read-out: IC50; for IC (total growth inhibition): read-out: TGI
Method in brief: (§1)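 In this MTT proliferation screen, formazan formed over 4 h was read at 560 nm against a 690 nm reference. Each line was tested at least three times, and the IC50 was taken as the concentration inhibiting half of the cells.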

C6 (Rat brain glioma) = experiment: cells; conditions: Rattus norvegicus; for LC50 (concentration giving 50% net cell loss relative to time zero): read-out: LC50; for GI50 / IC50 / IC (total growth inhibition): C6, MTT; for IC50: read-out: IC50; for IC (total growth inhibition): read-out: TGI
Method in brief: as §1

HT29 = experiment: cells; conditions: Homo sapiens; for LC50 (concentration giving 50% net cell loss relative to time zero): HT-29, read-out: LC50; for GI50 / IC50 / IC (total growth inhibition): HT-29, HT29, MTT; for IC50: read-out: IC50; for IC (total growth inhibition): read-out: TGI
Method in brief: as §1

HeLa = experiment: cells; conditions: Homo sapiens; for GI50 / IC50 / IC (total growth inhibition): MTT; for IC50: read-out: IC50; for IC (total growth inhibition): read-out: TGI; for LC50 (concentration causing 50% net cell loss): read-out: LC50
Method in brief: as §1

Hep3B = experiment: cells; conditions: Homo sapiens; for GI50 / IC50 / IC (total growth inhibition): MTT; for IC50: read-out: IC50; for IC (total growth inhibition): read-out: TGI; for LC50 (concentration causing 50% net cell loss relative to time zero): read-out: LC50
Method in brief: as §1

MCF7 = experiment: cells; conditions: Homo sapiens; for LC50 (concentration causing 50% net cell loss relative to time zero): MCF7, read-out: LC50; for GI50 / IC50 / IC (total growth inhibition): MCF7, MTT; for IC50: read-out: IC50; for IC (total growth inhibition): read-out: TGI
Method in brief: as §1

normal FL cells = experiment: cells; conditions: FL normal cells, MTT; for IC50: read-out: IC50; for IC (total growth inhibition): read-out: TGI
Method in brief: as §1

[1] = test system: A. actinomycetemcomitans ATCC 33384; experiment: Microdilution MIC assay; conditions: Aggregatibacter actinomycetemcomitans, ATCC33384; A. actinomycetemcomitans ATCC 33384, 24 h at 35 °C
Method in brief: (§2)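 Microwell dilution; 24 h, 35 °C; visual read; MIC = lowest conc. without turbidity.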

E. coli ATCC 25922 = experiment: Microdilution MIC assay; conditions: Escherichia coli, ATCC25922; E. coli ATCC 25922, 24 h at 35 °C
Method in brief: as §2

E. coli ESBL ATCC 35218 = experiment: Microdilution MIC assay; conditions: Escherichia coli, ATCC35218; E. coli ESBL ATCC 35218, 24 h at 35 °C
Method in brief: as §2

E. faecalis ATCC 29212 = experiment: Microdilution MIC assay; conditions: E. faecalis ATCC 29212, 24 h at 35 °C
Method in brief: as §2

[2] = test system: E. faecalis VRE ATCC 19433; experiment: Microdilution MIC assay; conditions: Enterococcus faecalis; E. faecalis VRE ATCC 19433, 24 h at 35 °C
Method in brief: as §2

[3] = test system: P. aeruginosa AGME ATCC 27853; experiment: Microdilution MIC assay; conditions: Pseudomonas aeruginosa, ATCC27853; P. aeruginosa AGME ATCC 27853, 24 h at 35 °C
Method in brief: as §2

S. aureus ATCC 25923 = experiment: Microdilution MIC assay; conditions: Staphylococcus aureus, ATCC25923, 24 h, S. aureus ATCC 25923, 24 h at 35 °C; read-out: MIC
Method in brief: as §2

[4] = test system: S. aureus MRSA ATCC 46300; experiment: Microdilution MIC assay; conditions: Staphylococcus aureus; S. aureus MRSA ATCC 46300, 24 h at 35 °C; read-out: MIC
Method in brief: as §2

[5] = test system: S. aureus MSSA ATCC 29213; experiment: Microdilution MIC assay; conditions: S. aureus MSSA ATCC 29213, 24 h at 35 °C
Method in brief: as §2

S. gordonii NCTC 7870 = experiment: Microdilution MIC assay; conditions: Streptococcus gordonii, NCTC7870; S. gordonii NCTC 7870, 24 h at 35 °C
Method in brief: as §2

S. mutans ATCC 35668 = experiment: Microdilution MIC assay; conditions: S. mutans ATCC 35668, 24 h at 35 °C
Method in brief: as §2

[6] = Enterococcus faecalis, ATCC29212, 24 h, read-out: MIC
[7] = Staphylococcus aureus, 24 h, read-out: MIC
[8] = Streptococcus mutans, ATCC35668, 24 h, read-out: MIC

## CC(=O)OC[C@H]1O[C@@H](Nc2nc(-c3cccc(C)c3)cc(-c3ccccn3)n2)[C@H](OC(C)=O)[C@@H](OC(C)=O)[C@@H]1OC(C)=O [Compound 13, 2,3,4,6-tetra-O-acetyl-N-[4-(3-methylphenyl)-6-pyridin-2-ylpyrimidin-2-yl]-β-D-glucopyranosylamine]
A549
  LC50 (concentration causing 50% net cell loss): > 500 µg/mL
  GI50: > 500 µg/mL
  IC50: > 500 µg/mL
  IC (total growth inhibition): > 500 µg/mL
C6 (Rat brain glioma)
  LC50 (concentration giving 50% net cell loss relative to time zero): 33.9 µg/mL (≈ 57.2 µM)
  GI50: 1.97 µg/mL (≈ 3.32 µM)
  IC50: 7.55 µg/mL (≈ 12.7 µM)
  IC (total growth inhibition): 4.7 µg/mL
HT29
  LC50 (concentration giving 50% net cell loss relative to time zero): > 500 µg/mL
  GI50: 2.94 µg/mL (≈ 4.96 µM)
  IC50: > 500 µg/mL
  IC (total growth inhibition): > 500 µg/mL
HeLa
  GI50: 4.48 µg/mL (≈ 7.56 µM)
  IC50: 60.4 µg/mL (≈ 102 µM)
  IC (total growth inhibition): 17.3 µg/mL
  LC50 (concentration causing 50% net cell loss): 224 µg/mL (≈ 378 µM)
Hep3B
  GI50: 2.56 µg/mL (≈ 4.32 µM)
  IC50: > 500 µg/mL
  IC (total growth inhibition): > 500 µg/mL
  LC50 (concentration causing 50% net cell loss relative to time zero): > 500 µg/mL
MCF7
  LC50 (concentration causing 50% net cell loss relative to time zero): > 500 µg/mL
  GI50: 1.84 µg/mL (≈ 3.1 µM)
  IC50: 297 µg/mL (≈ 500 µM)
  IC (total growth inhibition): 397 µg/mL
Normal FL cells
  GI50: 1.63 µg/mL (≈ 2.75 µM)
  IC50: 18.2 µg/mL (≈ 30.7 µM)
  IC (total growth inhibition): 19.1 µg/mL
[1]
  MIC: > 1000 µg/mL
E. coli ATCC 25922
  MIC: > 1000 µg/mL
E. coli ESBL ATCC 35218
  MIC: > 1000 µg/mL
E. faecalis ATCC 29212
  MIC: 31.25 µg/mL (≈ 52.7 µM)
E. faecalis ATCC 29212; [6]
  MIC: 31.2 to 125 µg/mL (≈ 52.7 to 211 µM)
[2]
  MIC: 1000 µg/mL (≈ 1690 µM)
[3]
  MIC: > 1000 µg/mL
S. aureus ATCC 25923
  MIC: 500 µg/mL (≈ 844 µM)
[4]
  MIC: 500 µg/mL (≈ 844 µM)
[5]
  MIC: 125 µg/mL (≈ 211 µM)
[5]; [7]
  MIC: 62.5 to 125 µg/mL (≈ 105 to 211 µM)
S. gordonii NCTC 7870
  MIC: > 1000 µg/mL
S. mutans ATCC 35668
  MIC: 125 µg/mL (≈ 211 µM)
S. mutans ATCC 35668; [8]
  MIC: 62.5 to 125 µg/mL (≈ 105 to 211 µM)

## CC(=O)OC[C@H]1O[C@@H](Nc2nc(-c3cccnc3)cc(-c3cccc(C)c3)n2)[C@H](OC(C)=O)[C@@H](OC(C)=O)[C@@H]1OC(C)=O [Compound 14, 2,3,4,6-tetra-O-acetyl-N-[4-(3-methylphenyl)-6-pyridin-3-ylpyrimidin-2-yl]-β-D-glucopyranosylamine]
A549
  LC50 (concentration causing 50% net cell loss): > 500 µg/mL
  GI50: 430 µg/mL (≈ 726 µM)
  IC50: > 500 µg/mL
  IC (total growth inhibition): > 500 µg/mL
C6 (Rat brain glioma)
  LC50 (concentration giving 50% net cell loss relative to time zero): > 500 µg/mL
  GI50: > 500 µg/mL
  IC50: > 500 µg/mL
  IC (total growth inhibition): > 500 µg/mL
HT29
  LC50 (concentration giving 50% net cell loss relative to time zero): > 500 µg/mL
  GI50: 2.28 µg/mL (≈ 3.85 µM)
  IC50: > 500 µg/mL
  IC (total growth inhibition): > 500 µg/mL
HeLa
  GI50: > 500 µg/mL
  IC50: > 500 µg/mL
  IC (total growth inhibition): > 500 µg/mL
  LC50 (concentration causing 50% net cell loss): > 500 µg/mL
Hep3B
  GI50: 4.9 µg/mL (≈ 8.27 µM)
  IC50: > 500 µg/mL
  IC (total growth inhibition): > 500 µg/mL
  LC50 (concentration causing 50% net cell loss relative to time zero): > 500 µg/mL
MCF7
  LC50 (concentration causing 50% net cell loss relative to time zero): > 500 µg/mL
  GI50: 1.95 µg/mL (≈ 3.29 µM)
  IC50: > 500 µg/mL
  IC (total growth inhibition): > 500 µg/mL
Normal FL cells
  GI50: 118 µg/mL (≈ 199 µM)
  IC50: > 500 µg/mL
  IC (total growth inhibition): > 500 µg/mL
[1]
  MIC: > 1000 µg/mL
E. coli ATCC 25922
  MIC: > 1000 µg/mL
E. coli ESBL ATCC 35218
  MIC: > 1000 µg/mL
E. faecalis ATCC 29212
  MIC: 31.25 µg/mL (≈ 52.7 µM)
E. faecalis ATCC 29212; [6]
  MIC: 31.2 to 125 µg/mL (≈ 52.7 to 211 µM)
[2]
  MIC: 1000 µg/mL (≈ 1690 µM)
[3]
  MIC: > 1000 µg/mL
S. aureus ATCC 25923
  MIC: 500 µg/mL (≈ 844 µM)
[4]
  MIC: 250 µg/mL (≈ 422 µM)
[5]
  MIC: 125 µg/mL (≈ 211 µM)
[5]; [7]
  MIC: 62.5 to 125 µg/mL (≈ 105 to 211 µM)
S. gordonii NCTC 7870
  MIC: > 1000 µg/mL
S. mutans ATCC 35668
  MIC: 62.5 µg/mL (≈ 105 µM)
S. mutans ATCC 35668; [8]
  MIC: 62.5 to 125 µg/mL (≈ 105 to 211 µM)

## CC(=O)OC[C@H]1O[C@@H](Nc2nc(-c3ccncc3)cc(-c3cccc(C)c3)n2)[C@H](OC(C)=O)[C@@H](OC(C)=O)[C@@H]1OC(C)=O [Compound 15, 2,3,4,6-tetra-O-acetyl-N-[4-(3-methylphenyl)-6-pyridin-4-ylpyrimidin-2-yl]-β-D-glucopyranosylamine]
A549
  LC50 (concentration causing 50% net cell loss): > 500 µg/mL
  GI50: > 500 µg/mL
  IC50: > 500 µg/mL
  IC (total growth inhibition): > 500 µg/mL
C6 (Rat brain glioma)
  LC50 (concentration giving 50% net cell loss relative to time zero): 71.2 µg/mL (≈ 120 µM)
  GI50: 2.21 µg/mL (≈ 3.73 µM)
  IC50: 11.2 µg/mL (≈ 19 µM)
  IC (total growth inhibition): 6.3 µg/mL
HT29
  LC50 (concentration giving 50% net cell loss relative to time zero): > 500 µg/mL
  GI50: 5 µg/mL (≈ 8.44 µM)
  IC50: > 500 µg/mL
  IC (total growth inhibition): > 500 µg/mL
HeLa
  GI50: > 500 µg/mL
  IC50: > 500 µg/mL
  IC (total growth inhibition): > 500 µg/mL
  LC50 (concentration causing 50% net cell loss): > 500 µg/mL
Hep3B
  GI50: 5.55 µg/mL (≈ 9.37 µM)
  IC50: > 500 µg/mL
  IC (total growth inhibition): > 500 µg/mL
  LC50 (concentration causing 50% net cell loss relative to time zero): > 500 µg/mL
MCF7
  LC50 (concentration causing 50% net cell loss relative to time zero): > 500 µg/mL
  GI50: 4.1 µg/mL (≈ 6.92 µM)
  IC50: > 500 µg/mL
  IC (total growth inhibition): > 500 µg/mL
Normal FL cells
  GI50: 26.7 µg/mL (≈ 45 µM)
  IC50: > 500 µg/mL
  IC (total growth inhibition): > 500 µg/mL
[1]
  MIC: > 1000 µg/mL
E. coli ATCC 25922
  MIC: > 1000 µg/mL
E. coli ESBL ATCC 35218
  MIC: > 1000 µg/mL
E. faecalis ATCC 29212
  MIC: 31.25 µg/mL (≈ 52.7 µM)
E. faecalis ATCC 29212; [6]
  MIC: 31.2 to 125 µg/mL (≈ 52.7 to 211 µM)
[2]
  MIC: 1000 µg/mL (≈ 1690 µM)
[3]
  MIC: > 1000 µg/mL
S. aureus ATCC 25923
  MIC: 500 µg/mL (≈ 844 µM)
[4]
  MIC: 250 µg/mL (≈ 422 µM)
[5]; [7]
  MIC: 250 µg/mL (≈ 422 µM)
S. gordonii NCTC 7870
  MIC: > 1000 µg/mL
S. mutans ATCC 35668
  MIC: 62.5 µg/mL (≈ 105 µM)
S. mutans ATCC 35668; [8]
  MIC: 62.5 to 125 µg/mL (≈ 105 to 211 µM)
